pIC50: −log10 of the molar value.

The test system of assay [1] is HPAC pancreatic cancer cell line. Nature of the assay: In vitro antiproliferative activity, HPAC pancreatic cancer cell line. In kind it is cell-based. As to conditions: Homo sapiens, Table 1. As for the experimental part: (§1) Substituted β-carboline compounds 4 to 38 were tested for antiproliferative activity against HCT116 colon cancer cells and HPAC, Mia-PaCa2 and Panc-1 pancreatic cancer cell lines. Table 1 lists the IC50 values for the substituted β-carbolines.
(§2) Substituted β-carbolines and analog compounds 39 to 57 were tested for antiproliferative activity against HPAC, Mia-PaCa2 and Panc-1 pancreatic cancer cell lines and MCF-7 and MDA-MB-468 breast cancer cell lines. Table 2 lists the IC50 values for the substituted β-carbolines and analogs thereof.

The subject of assay [2] is Mia-PaCa2 pancreatic cancer cell line. Nature of the assay: In vitro antiproliferative activity, Mia-PaCa2 pancreatic cancer cell line. In kind it is cell-based. The settings on record: Homo sapiens, MIA PaCa-2, Table 1. As for the experimental part:
as §1, §2

In assay [3] the test system is Panc-1 pancreatic cancer cell line. As to the kind of experiment: In vitro antiproliferative activity, Panc-1 pancreatic cancer cell line. In kind it is cell-based, human. The settings on record: Homo sapiens, Table 1. As for the experimental part: as §2
Assay [4] deals with HCT116 colon cancer cells. Nature of the assay: In vitro antiproliferative activity, HCT116 colon cancer cells. In kind it is cell-based. The settings on record: Homo sapiens, HCT-116, Table 1. As to the method:
as §1

One may read the pIC50 as −log10 of the IC50, conventionally taken in molar units. Read a low pIC50 as a high IC50. As to `COc1ccc2c(c1)[nH]c1c(-c3cccnc3)nccc12` [Compound 5, 1-Pyridin-3-yl-7-methoxy-9H-β-carboline], the pIC50 in assay [1] is under 4.30; in assay [2] it was 4.35; in assay [3], under 4.30.
As for `COc1ccc2c(c1)[nH]c1c(-c3ccoc3)nccc12` [Compound 8, 1-Furan-3-yl-7-methoxy-9H-β-carboline], the negative-log IC50 (pIC50) in assay [1] is 4.35; in assay [2] it was 4.42; in assay [3], under 4.30.
Taken in the same sequence, the figures for `COc1ccc2c(c1)[nH]c1c(-c3nccc4ccccc34)nccc12` [Compound 12, 1-Isoquinolin-1-yl-7-methoxy-9H-β-carboline] were 4.46, 4.31 and under 4.30.
For `COc1ccc2[nH]c3c(-c4cccc5nccnc45)nccc3c2c1` [Compound 13, 6-Methoxy-1-quinoxalin-5-yl-9H-β-carboline], the negative logarithm of the IC50 (pIC50) was 4.58 in assay [4], under 4.30 in assay [1], under 4.30 in assay [2] and under 4.30 in assay [3].
Take `COc1ccc2c(c1)[nH]c1c(-c3cccc4nccnc34)nccc12` [Compound 14, 7-Methoxy-1-quinoxalin-5-yl-9H-β-carboline]: the pIC50 in assay [4] was 4.30; in assay [1] it was under 4.30; in assay [2] it was under 4.30; in assay [3], under 4.30.
As for `COc1ccc2[nH]c3c(-c4cncc5ccccc45)nccc3c2c1` [Compound 15, 1-Isoquinolin-4-yl-6-methoxy-9H-β-carboline], the pIC50 in assay [4] was 5.24; in assay [1], 5.13; in assay [2], 5.33; in assay [3], 4.98.
The like results for `COc1ccc2c(c1)[nH]c1c(-c3cncc4ccccc34)nccc12` [Compound 16, 1-Isoquinolin-4-yl-7-methoxy-9H-β-carboline] were, in that order, 4.47, 4.35, 4.43 and under 4.30.
Taken in the same sequence, the figures for `COc1ccc2[nH]c3c(-c4cnc5ccccc5c4)nccc3c2c1` [Compound 17, 6-Methoxy-1-quinolin-3-yl-9H-β-carboline] were 4.85, 4.66, 4.77 and 4.54.
Taken in the same sequence, the figures for `COc1ccc2c(c1)[nH]c1c(-c3cnc4ccccc4c3)nccc12` [Compound 18, 7-Methoxy-1-quinolin-3-yl-9H-β-carboline] were 4.88, 4.84, 4.78 and 4.43.
Take `COc1ccc2c(c1)[nH]c1c(-c3cccc4ccccc34)nccc12` [Compound 20, 7-Methoxy-1-naphthalen-1-yl-9H-β-carboline]: the pIC50 in assay [4] was 5.44; in assay [1], 4.59; in assay [2], 5.18; in assay [3], under 4.30.
As to `COc1ccc2[nH]c3c(-c4cccc5ncccc45)nccc3c2c1` [Compound 21, 6-Methoxy-1-quinolin-5-yl-9H-β-carboline], the negative logarithm of the IC50 (pIC50) in assay [4] was 6.05; in assay [1] it was 5.23; in assay [2], 5.59; in assay [3], 5.12.
For the compound `COc1ccc2c(c1)[nH]c1c(-c3cccc4ncccc34)nccc12` [Compound 22, 7-Methoxy-1-quinolin-5-yl-9H-β-carboline], the pIC50 in assay [4] is 4.89; in assay [1] it was under 4.30; in assay [2], 4.54; in assay [3], under 4.30.
On to `COc1ccc2[nH]c3c(-c4cccc5cnccc45)nccc3c2c1` [Compound 23, 1-Isoquinolin-5-yl-6-methoxy-9H-β-carboline], for which the pIC50 is 5.05 in assay [4], 4.80 in assay [1], 5.01 in assay [2] and 4.67 in assay [3].
The like results for `COc1ccc2c(c1)[nH]c1c(-c3cccc4cnccc34)nccc12` [Compound 24, 1-Isoquinolin-5-yl-7-methoxy-9H-β-carboline] were, in that order, 4.82, 4.46, 4.62 and under 4.30.
The like results for `COc1ccc2[nH]c3c(-c4ccc5ccccc5c4)nccc3c2c1` [Compound 25, 6-Methoxy-1-naphthalen-2-yl-9H-β-carboline] were, in that order, 6.17, 5.25, 5.87 and 5.08.
The like results for `COc1ccc2c(c1)[nH]c1c(-c3ccc4ccccc4c3)nccc12` [Compound 26, 7-Methoxy-1-naphthalen-2-yl-9H-β-carboline] were, in that order, 4.77, 4.68, 4.66 and 4.32.
As to `COc1ccc2[nH]c3c(-c4c5ccccc5cc5ccccc45)nccc3c2c1` [Compound 27, 1-Anthracen-9-yl-6-methoxy-9H-β-carboline], the pIC50 was 5.68 in assay [4], 5.22 in assay [1], 5.61 in assay [2] and 4.98 in assay [3].
The like results for `COc1ccc2c(c1)[nH]c1c(-c3c4ccccc4cc4ccccc34)nccc12` [Compound 28, 1-Anthracen-9-yl-7-methoxy-9H-β-carboline] were, in that order, 5.77, 5.26, 5.44 and 4.83.
The like results for `COc1ccc2[nH]c3c(-c4cc5ccccc5c5ccccc45)nccc3c2c1` [Compound 29, 6-Methoxy-1-phenanthren-9-yl-9H-β-carboline] were, in that order, 6.28, 6.27, 6.08 and 4.75.
The like results for `COc1ccc2c(c1)[nH]c1c(-c3cc4ccccc4c4ccccc34)nccc12` [Compound 30, 7-Methoxy-1-phenanthren-9-yl-9H-β-carboline] were, in that order, 6.06, 5.25, 5.80 and under 4.30.
For the compound `COc1ccc2[nH]c3c(-c4ccccc4)nccc3c2c1` [Compound 31, 6-Methoxy-1-phenyl-9H-β-carboline], the negative-log IC50 (pIC50) was 4.47 in assay [4], 4.35 in assay [1], 4.43 in assay [2] and under 4.30 in assay [3].
With `COc1ccc2c(c1)[nH]c1c(-c3ccccc3)nccc12` [Compound 32, 7-Methoxy-1-phenyl-9H-β-carboline], the pIC50 in assay [4] was 4.50; in assay [1], 4.47; in assay [2] it was 4.46; in assay [3] it was under 4.30.
Taken in the same sequence, the figures for `COc1ccc2[nH]c3c(-c4c(C)ccc5ccccc45)nccc3c2c1` [Compound 33, 6-Methoxy-1-(2-methyl-naphthalen-1-yl)-9H-β-carboline] were 5.74, 5.03, 5.65 and 4.70.
With `COc1ccc2c(c1)[nH]c1c(-c3c(C)ccc4ccccc34)nccc12` [Compound 34, 7-Methoxy-1-(2-methyl-naphthalen-1-yl)-9H-β-carboline], the pIC50 was 5.61 in assay [4], 4.75 in assay [1], 4.68 in assay [2] and 4.48 in assay [3].
Consider `c1ccc(COc2ccc3[nH]c4c(-c5cccc6ccccc56)nccc4c3c2)cc1` [Compound 36, 6-Benzyloxy-1-naphthalen-1-yl-9H-β-carboline], for which the pIC50 was 6.08 in assay [1], 6.29 in assay [2] and 6.24 in assay [3].

These data come from patent publication US8927570B2, “1-naphthyl-or 1-dihydroacenaphthenyl-pyrido[B]indoles and uses thereof in treating cancers” (priority 2009, dated 2015).
